Columns and labels:
[1] = cited from earlier work; for pH of 0.1 M aqueous sol'n: 0.1M aqueous solution, 25° C.
[2] = In vitro skin permeation of diclofenac sodium transdermal delivery systems, Franz diffusion cells; format: in vitro ADME, human; conditions: 24 hours; for cumulative amount of diclofenac that permeated through the skin: 32° C.
Procedure: Each formulation was coated on a release liner and dried in an oven at 65° C. for two hours to remove water and other solvents. The dried drug-in-adhesive/release liner film was laminated to a backing film, and the backing/drug-in-adhesive/release liner laminate was then cut into discs with a diameter of 9/16 inch. The theoretical weight percent weight of each component of the system, after drying (calculated assuming all volatile ingredients were completely removed during drying), is set forth in Table 3.
The release liner was peeled away from the disc laminate. […] The skin/adhesive/backing laminate was clamped between the donor and receiver chambers of the diffusion cell with the skin side facing the receiver solution. […] All cells and receiver solution were maintained at 32° C. for the 24-hour duration of the study.

SMILES	pH of 0.1 M aqueous sol'n [1]	pKa [1]	other results
CC1CCCCN1C (stereo not shown) [1,2-dimethylpiperidine]	11.61	10.22	
CC1CCCN1C (stereo not shown) [1,2-dimethylpyrrolidine]	11.60	10.20	
NCCCCN [1,4-butanediamine]	11.90		
CCN1CCCCC1 [1-ethylpiperidine]	11.73	10.45	
Cc1cccnc1C [2,3-dimethylpyridine]	9.79		
Cc1cc(C)nc(C)c1 [2,4,6-trimethylpyridine]		6.69	
Cc1c[nH]c(C)n1 [2,4-dimethylimidazole]	10.68	8.36	
Cc1ccnc(C)c1 [2,4-dimethylpyridine]	10.00	6.99	
Nc1ccc(N)nc1 [2,5-diaminopyridine]	9.74	6.48	
CC1CNC(C)CN1 (stereo not shown) [2,5-dimethylpiperazine]	11.33	9.66	
CCCCCC(C)N (stereo not shown) [2-aminoheptane]	11.85	10.70	
COc1ccccn1 [2-methoxypyridine]	8.14		
Cc1cncc(C)c1 [3,5-dimethylpyridine]	9.58		
COc1cccnc1 [3-methoxypyridine]	8.89	4.78	
COc1ccncc1 [4-methoxypyridine]	9.79	6.58	
CN1CCCC1 [N-methylpyrrolidine]	11.73	10.46	
c1ccc2[nH]cnc2c1 [benzitnidazole]	9.24	5.48	
NCc1ccccc1 [benzylamine]	11.17		
NC1CCCCC1 [cyclohexylamine]	11.82		
O=C(O)Cc1ccccc1Nc1c(Cl)cccc1Cl [diclofenac, diclofenac sodium]			cumulative amount of diclofenac that permeated through the skin ([2]; N-methyl glucamine added (Formulation H, with NaOH)): 1.54 mg/cm^2; cumulative amount of diclofenac that permeated through the skin ([2]; monoethanolamine added (Formulation G, with NaOH)): 1.57 mg/cm^2; cumulative amount of diclofenac that permeated through the skin ([2]; no nitrogenous base added (Formulation E, NaOH only)): 0.90 mg/cm^2; cumulative amount of diclofenac permeated, times higher than when no nitrogenous base was present ([2]; system containing monoethanolamine vs no nitrogenous base): about 1.7 times; cumulative amount of diclofenac that permeated through the skin ([2]; triethanolamine added (Formulation F, with NaOH)): 1.08 mg/cm^2
NCCN [ethylenediamine]		9.93	
CC(C)N [isopropylamine]	11.80	10.60	
CCCCN [n-butylamine]	11.81		
NCCc1ccccc1 [phenethylamine]	11.42		
C1CNCCN1 [piperazine]	11.42		
NC(N)=O [urea]	6.55		
CC(N)c1ccccc1 (stereo not drawn) [α-methyl-benzylamine]	11.38	9.75	
Cc1ccncc1 [γ-picoline]		5.99	
